# Source: US20250320190A1, “Novel Inhibitors of Leucine Carboxyl Methyltransferase-1 (LCMT-1) and Methods of Use Thereof” (Temple University-Of The Commonwealth System of Higher …, priority 2024, published 2025)
# “Also recorded” adds a separate entry of the source.
# Assays:
# Format in all cases: cell-based, human
# Rosi cells = experiment: Western blots; details: 20 μM
# Protocol: MCF7, MDA-MB-231 and Rosi cells were treated with Compound 1 or Compound 2 at a concentration of 20 μM in complete medium, and lysates were harvested after 2, 4, 6, 8 and 12 hours in radioimmunoprecipitation assay buffer containing protease inhibitors (Boster Bio, Pleasanton, California, catalog #AR1182-1) and phosphatase inhibitors (Santa Cruz Biotechnology catalog #sc-45044 and #sc-45045). Protein concentrations were measured with a bicinchoninic acid assay (G-Biosciences, Saint Louis, Missouri). Fifty micrograms of each lysate were used for bis-tris polyacrylamide gel electrophoresis. Resolved lysates were transferred to nitrocellulose membranes. Membranes were blocked with TBS with 5% bovine serum albumin before incubation with primary antibodies.
# Antibodies obtained from Cell Signaling Technology (Danvers Massachusetts) were, anti-PP2Ac (catalog #2038, 1:1,000 dilution), anti-phospho-adenosine monophosphate-activated protein kinase (pAMPKα2 threonine 172, catalog #2535, 1:1,000 dilution). Antibodies obtained from Proteintech (Rosemont, Illinois) include anti-phospho-receptor-interacting serine/threonine protein kinase-1 antibodies (pRIPK1 serine 161 (catalog #66854-1-Ig, 1:1,000 dilution) and pRIPK1 serine 166 (catalog #28252-1-AP, 1:10,000 dilution), anti-mixed lineage kinase domain like pseudokinase (MLKL, catalog #66675-1-Ig, 1:5,000 dilution), anti-AMPKα2, anti-phospho-acetyl-coenzyme A carboxylase (pACC1 serine 79, catalog #29119-1-AP, 1:1,000 dilution), anti-ACC1 (catalog #21923-1-AP, 1:2,000 dilution) and anti-β-actin (catalog #66009-1-Ig, 1:50,000 dilution). The anti-RIPKI antibody was obtained from AbClonal (Woburn, Massachusetts, catalog #A7414, 1:750 dilution). The anti-phospho-MLKL antibody was obtained from R&D Systems (Minneapolis, Minnesota, 1:1,000 dilution). The LCMT-1 antibody was obtained from Origene (Rockville, Maryland, catalog #TA503127S, 1:2,000 dilution). Appropriate IR-dye secondary antibodies were used (Alexa Fluor® 790-conjugated anti-mouse (catalog #115-655-146, 1:50,000 dilution), Alexa Fluor® 680-conjugated anti-mouse (catalog #115-625-146, 1:50,000 dilution), and Alexa Fluor® 680-conjugated anti-rabbit (catalog #115-625-144, 1:50,000 dilution) were obtained from Jackson ImmunoResearch Laboratories (West Grove, Pennsylvania). Band densities were normalized to β-actin, the endogenous control. At least five replicates were used for statistical analyses.
# [1] = test system: MDA-MB-231 cells transfected with the LCMT-1 expression vector; experiment: Cytotoxicity assay in LCMT-1-transfected cells; details: MDA-MB-231 transfected with LCMT-1 vector
# Protocol: MDA-MB-231 cells were also transfected with the LCMT-1 expression vector using Lipofectamine 3000 transfection reagent (Thermo Fisher Scientific, Waltham, Massachusetts) according to the manufacturer's transfection protocol for MDA-MB-231 cells. After 5 hours the medium was changed. The cells were split 1:100 the following day, and 2 days after transfection, selection with G418 sulfate (Mediatech, Herndon, Virginia) at […] for 2 weeks commenced to develop stably transfected cells. After the selection process, cells were used in Compound 2 cytotoxicity assays as previously described.
# SCC-15 cells = experiment: Cell cycle analysis (BrdU) with and without irradiation; details: in the presence of irradiation
# Protocol: (§1) Cells were treated with LCMT-li, radiotherapy or both as described for Annexin V assays. After 24 hours, cells were labeled with 50 μM bromodeoxyuridine (BrdU, BioGems, Westlake Village, California, catalog #5911439) for 4 hours. Cells were lifted with 0.25% trypsin, 2.21 mM ethylenediaminetetraacetic acid (EDTA) (Corning catalog #25-053-CI) after 4 hours and fixed with 70% ethanol overnight at −20° C. Cells were pelleted and permeabilized with 1 M HCl with 0.1% Triton X-100 for one minute. Cells were pelleted and cellular DNA was denatured with 2 M HCl. After neutralization with 1 M Tris, pH 8.5, cells were labeled with FITC-anti-BrdU (Biolegend, catalog #364104, 5 μL/100 μL cell suspension) and 7-aminoactinomycin-D (7-AAD, Biolegend, catalog #420404, 1 μL/100 μL cell suspension). Cells were washed with PBS with 10% FBS, and resuspended in PBS with 0.1% Triton X-100. Cells were analyzed with flow cytometry. Cell cycle analyses were performed twice with 12 replicates, 104 cells/replicate.
# SCC-25 cells [2] = experiment: as above
# Protocol: as §1
# UM-SCC-12 cells [3] = experiment: as above; details: LCMT-li/irradiation combination vs irradiation alone
# Protocol: as §1
# UM-SCC-14a cells [4] = experiment: as above; details: combination vs irradiation alone, listed as LCMT-li
# Protocol: as §1
# UM-SCC-49 cells [5] = experiment: as above; details: combination vs irradiation alone
# Protocol: as §1
# UM-SCC-69 cells [6] = experiment: as above
# Protocol: as §1
# SCC-25 cells [7] = experiment: DDR analysis (activated γ-H2AX flow cytometry); details: LCMT-li alone vs control cells, 24 hours
# Protocol: (§2) Cells were treated with LCMT-li, radiotherapy or both as described for Annexin V assays. After 24 hours, cells were lifted with 0.25% trypsin, 2.21 mM EDTA, stained with Ghost Dye™ 710 and fixed with formaldehyde as described. Cells were washed with PBS with 1% BSA, and permeabilized with PBS with 0.1% Triton X-100 on ice for 10 minutes. Cells were pelleted and washed twice with PBS with 0.02% Triton X-100. Cells were resuspended in PBS with 1% BSA and 0.3% Tween-20, and stained with FITC-anti-activated-γ-H2AX (Biolegend, catalog #613404). Cells were pelleted and washed with PBS with 1% BSA and 0.1% sodium azide. DDR analyses were performed twice with 12 replicates, 104 cells/replicate.
# UM-SCC-12 cells [8] = experiment: DDR analysis (activated γ-H2AX flow cytometry); details: LCMT-li alone vs control cells, 24 hours
# Protocol: as §2
# UM-SCC-14a cells [9] = experiment: DDR analysis (activated γ-H2AX flow cytometry); details: LCMT-li alone vs control cells, 24 hours
# Protocol: as §2
# UM-SCC-49 cells [10] = experiment: DDR analysis (activated γ-H2AX flow cytometry); details: LCMT-li alone vs control cells, 24 hours
# Protocol: as §2
# UM-SCC-69 cells [11] = experiment: DDR analysis (activated γ-H2AX flow cytometry)
# Protocol: as §2
compound,measurement,setting,value
"COC(=O)c1c(NC(=O)c2ccccc2C)sc(C(=O)Nc2cccc(C)c2)c1C [Compound 2, methyl 4-methyl-2-[(2-methylbenzoyl)amino]-5-[[(3-methylphenyl)amino]carbonyl]-3-thiophenecarboxylate]",RIPK1 phosphorylation at serine 161,Rosi cells,increased RIPK1 phosphorylation at serine 161
same,phosphorylation of ACC1,Rosi cells,increased phosphorylation of ACC1
same,phosphorylation of AMPK,Rosi cells,Increased phosphorylation of AMPK was not found
same,phosphorylation of MLKL,Rosi cells,Increased phosphorylation of MLKL was noted
same,PP2Ac methylation,Rosi cells; Compound 2 significant at 6 hours,decreased PP2Ac methylation
same,cytosolic PP2Ab expression,Rosi cells; after 4-6 hours of exposure,decreased cytosolic PP2Ab expression
same,effect of LCMT-1 overexpression on Compound 2-mediated cell death,[1],induced resistance to Compound 2-mediated cell death
same,cell cycle effect,SCC-15 cells,induced G0/G1 as well as G2/M phase arrest
same,cell cycle effect,SCC-25 cells [2]; LCMT-li alone vs control cells,induced G2/M phase arrest
same,cell cycle effect,SCC-25 cells [2]; LCMT-li/irradiation combination vs irradiation alone,increased G2/M phase arrest
same,cell cycle effect,UM-SCC-12 cells [3],increased G2/M phase arrest
same,cell cycle effect,UM-SCC-14a cells [4],increased G0/G1 arrest; also recorded: decreased G2/M phase arrest
same,cell cycle effect,UM-SCC-49 cells [5],decreased G2/M phase arrest
same,cell cycle effect,UM-SCC-69 cells [6]; LCMT-li alone vs control cells,induced G0/G1 arrest
same,cell cycle effect,UM-SCC-69 cells [6]; combination vs irradiation alone,decreased G2/M phase arrest
same,activated γ-H2AX expression,SCC-25 cells [7],increased activated γ-H2AX expression
same,activated γ-H2AX expression,UM-SCC-12 cells [8],decreased activated γ-H2AX expression
same,activated γ-H2AX expression,UM-SCC-14a cells [9],decreased activated γ-H2AX expression
same,activated γ-H2AX expression,UM-SCC-49 cells [10],decreased activated γ-H2AX expression
same,activated γ-H2AX expression,"UM-SCC-69 cells [11]; LCMT-li alone vs control cells, 24 hours",decreased activated γ-H2AX expression
same,DDR (activated γ-H2AX expression),UM-SCC-69 cells [11]; in the presence of irradiation,inhibited DDR as evidenced by persistent activated γ-H2AX expression
